Measured values taken from ChEMBL document CHEMBL3217707, “A matched molecular pair analysis of in vitro human microsomal metabolic stability measurements for heterocyclic replacements of di-substituted benzene containing compounds identification of those isosteres more likely to have beneficial effects” (Medchemcomm, 2012).

How the values were obtained:
[1] = Intrinsic clearance in human liver microsomes after 30 mins; type: ADME; conditions: read-out: CLH
[2] = Lipophilicity, log D of the compound at pH 7.4; conditions: buffer

| SMILES | microsomal CLint [1] [µL/min/mg] | logD [2] |
| --- | --- | --- |
| CC(C)(C)OC(=O)N1CCN(c2ccc(OCc3ccc(S(C)(=O)=O)cc3)cn2)CC1 | 247 | 3.2 |
| CC(C)(C)OC(=O)N1CCN(c2cnc(OCc3ccc(S(C)(=O)=O)cc3)cn2)CC1 | 29.9 | 3.4 |
| CC(C)(C)OC(=O)N1CCN(c2ccc(OCc3ccc(S(C)(=O)=O)cc3)nn2)CC1 | 139 | 2.8 |
| CC(C)(C)OC(=O)N1CCN(c2ncc(OCc3ccc(S(C)(=O)=O)cc3)nn2)CC1 | 131 | 2.9 |
| CC(C)(C)OC(=O)N1CCN(c2cnc(OCc3ccc(S(C)(=O)=O)cc3)nc2)CC1 | 86.8 |  |

Now from value to compound:

| microsomal CLint [1] [µL/min/mg] | logD [2] | SMILES |
| --- | --- | --- |
| 62.6 | 3.9 | CC(C)(C)OC(=O)N1CCN(c2ccc(OCc3ccc(S(C)(=O)=O)cc3)cc2)CC1 |
| 105 |  | CC(C)(C)OC(=O)N1CCN(c2ccc(OCc3ccc(S(C)(=O)=O)cc3)nc2)CC1 |
| 60 |  | CC(C)(C)OC(=O)N1CCN(c2ncc(OCc3ccc(S(C)(=O)=O)cc3)cn2)CC1 |
